From publication PMC8325119, “A Novel Class of Functionalized Synthetic Fluoroquinolones with Dual Antiproliferative - Antimicrobial Capacities” (Asian Pacific Journal of Cancer Prevention : APJCP, 2021)
≈ marks a conversion by molar mass, not a printed value. Where “and” joins values, the source holds several entries; their conditions need not be identical. Identical values can stand only once. Like-named read-outs stand apart in the source and are kept apart here.

Columns and labels:
[1] = tested on: Staphylococcus aureus (S. aureus) ATCC 6538; assay: Quantitative antimicrobial assessment (MIC) against S. aureus; assay type: cell-based; details: for MIC potency compared with ciprofloxacin, S. aureus: in words
A375.S2 cell line = assay: SRB cytotoxicity assay, A375.S2 melanoma cell line; details: Homo sapiens, A375-S2, 72 h, read-out: Cytotoxicity IC50 value, A375.S2 cell line
PANC 1 cell line = assay: SRB cytotoxicity assay, PANC 1 pancreatic cancer cell line; details: Homo sapiens, PANC-1, 72 h, read-out: Cytotoxicity IC50 value, PANC 1 cell line
MCF7 cell line = assay: SRB cytotoxicity assay, MCF7 breast cancer cell line; details: Homo sapiens, MCF7, 72 h, read-out: Cytotoxicity IC50 value, MCF7 cell line
PDL Fibroblasts = assay: SRB cytotoxicity on normal periodontal ligament fibroblasts, selective cytotoxicity; assay type: cell-based, Human; details: for IC50: Homo sapiens, Fibroblast, normal fibroblasts, SRB, 72 h, mean ± SD; for Selectivity index SI (K562): IC50 on PDL fibroblasts divided by IC50 on K562
Method in brief: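 Human periodontal ligament fibroblasts, a primary normal culture, tested by SRB colorimetric assay for cell viability. Selectivity ratio = IC50 on normal fibroblasts divided by IC50 on the pathological cell line.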

K562 cell line = assay: SRB cytotoxicity assay, K562 leukaemia cell line; details: Homo sapiens, K562, 72 h
T47D cell line = assay: cells; details: Homo sapiens, T47D, 72 h, read-out: Cytotoxicity IC50 value, T47D cell line
Method in brief: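 Cell lines grown in DMEM with FBS, HEPES, L-glutamine and antibiotics; cytotoxicity read by sulforhodamine B colorimetric assay giving IC50. Primary human periodontal ligament fibroblasts serve as normal cells; selectivity ratio = fibroblast IC50 divided by cancer-line IC50.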

HELA cell line = assay: SRB cytotoxicity assay, HELA cervical cancer cell line; details: Homo sapiens, HeLa, 72 h
A549 cell line = assay: SRB cytotoxicity assay, A549 lung cancer cell line; details: Homo sapiens, A549, 72 h, read-out: Cytotoxicity IC50 value, A549 cell line
[2] = tested on: Candida albicans (C. albicans) ATCC 1023; assay: Quantitative antimycotic assessment (MIC) against C. albicans; assay type: cell-based; details: in words
SW620 = tested on: SW620; design: method as in earlier work; details: colon cancer cells, Figure 1; ref Arabiyat et al. 2016a,b; 2017; Alabsi et al. 2018; Jumah 2018; AlShahrabi et al., 2020; read-out: IC50 against SW620; cited from earlier work
HCT116 = tested on: HCT116; design: method as in earlier work; details: colon cancer cells, Figure 1; ref Arabiyat et al. 2016a,b; 2017; Alabsi et al. 2018; Jumah 2018; AlShahrabi et al., 2020; read-out: IC50 against HCT116; cited from earlier work
[3] = 0.1-200 μg/mL range, NI = lack of cytotoxicity in range
[4] = read-out: Cytotoxicity IC50 value, K562 cell line, SRB, 72 h, 0.1-200 μg/mL range, mean ± SD, value in brackets
[5] = read-out: Cytotoxicity IC50 value, K562 cell line, SRB, 72 h, 0.1-200 μg/mL range, mean ± SD, NI = lack of cytotoxicity in range
[6] = read-out: Cytotoxicity IC50 value, HELA cell line, SRB, 72 h, 0.1-200 μg/mL range, mean ± SD, value in brackets
[7] = read-out: Cytotoxicity IC50 value, HELA cell line, SRB, 72 h, 0.1-200 μg/mL range, mean ± SD, NI = lack of cytotoxicity in range

Structure (SMILES)	MIC ([1]; Staphylococcus aureus, ATCC6538, Gram positive, ATCC 6538)	MIC potency compared with ciprofloxacin, S. aureus [1]	IC50 (A375.S2 cell line)	IC50 (PANC 1 cell line)	IC50 (MCF7 cell line)	IC50 (PDL Fibroblasts; [3])	IC50 (PDL Fibroblasts; value in brackets)	Selectivity index SI (K562) (PDL Fibroblasts)	IC50 (K562 cell line; [4])	IC50 (K562 cell line; [5])	IC50 (T47D cell line)	IC50 (HELA cell line; [6])	IC50 (HELA cell line; [7])	IC50 (A549 cell line)	Antimycotic MIC potency compared with fluconazole, C. albicans [2]	IC50 (SW620)	IC50 (HCT116)
CCCCc1ccc(Nc2c(F)cc3c(=O)c(C(=O)O)cn(C4CC4)c3c2N)cc1 [4e, 8-Amino-1-cyclopropyl-6-fluoro-7-(4-butyl-phenylamino)-4-oxo-1,4-dihydro-quinoline-3-carboxylic acid]	0.32 µM (≈ 0.131 µg/mL)	significantly more potent than ciprofloxacin	79.2 µM and 32.4 µg/mL	20.8 µM and 8.5 µg/mL	107 µM and 44 µg/mL	43 ± 3.02 µM	18.9 µg/mL	8592	0.002 µg/mL	0.005 ± 0.0009 µM	44.1 µM and 18 µg/mL	27.6 µg/mL	67.3 ± 6.64 µM	25.1 µM and 10.3 µg/mL	more potent than antimycotic flucanozole		
CCCCc1ccc(-n2nnc3c4c(cc(F)c32)c(=O)c(C(=O)O)cn4C2CC2)cc1 [5e, 9-cyclopropyl-4-fluoro-3-(4-butyl-phenyl)-6-oxo-6,9-dihydro-3H-[1,2,3] triazolo[4,5-h]quinoline-7-carboxylic acid]			103 µM and 43.1 µg/mL	87.1 µM and 36.5 µg/mL	105 µM and 44.2 µg/mL	72.6 ± 3.56 µM	30.4 µg/mL	1.48	20.6 µg/mL	49 ± 7.2 µM	97.6 µM and 41 µg/mL	153 µg/mL	364 ± 22.8 µM	181 µM and 76 µg/mL	more potent than antimycotic flucanozole		
CCn1cc(C(=O)O)c(=O)c2cc(F)c(Nc3ccc(Cl)cc3)c(N)c21 [A (X =Cl)]																11.7 µM	3.5 µM
COc1ccccc1-n1nnc2c3c(cc(F)c21)c(=O)c(C(=O)O)cn3C1CC1 [5a, 9-cyclopropyl-4-fluoro-3-(2-methoxy-phenyl)-6-oxo-6,9-dihydro-3H-[1,2, and 3] triazolo [4,5-h] quinoline-7-carboxylic acid]		significantly more potent than ciprofloxacin	171 µM and 67.2 µg/mL	201 µM and 78.9 µg/mL	44.3 µM and 17.4 µg/mL	279 ± 27.4 µM	110 µg/mL	6.71	16.4 µg/mL	41.7 ± 6.86 µM	42.1 µM and 16.6 µg/mL	124 µg/mL	299 ± 11.4 µM	> 200 µg/mL			
